Source: patent US7687530B2, “Inhibition of chronic tissue transplant rejection” (Genzyme Corporation, priority 2002, dated 2010)
Entries after “also recorded” stand apart in the source; their conditions may differ.

Legend:
Assay type in all cases: in vivo
[1] = tested on: heart from C57/BL6 mice transplanted into Balb/c recipient mice (total MHC mismatch); experiment: Transplant rejection in total MHC mismatch heart transplant mouse model (Example 3); conditions: Compound 1 alone 75 mg/kg/day s.c. for fourteen days; p<0.001; untreated controls rejected after ten days
Description: The ability of Compound 1 to inhibit transplant rejection in a mouse model was tested. Specifically, the heart from C57/BL6 mice was transplanted into Balb/c recipient mice (total MHC mismatch) using standard protocol described in Hancock, W. W., et al. “Costimulatory function and expression of CD40 ligand, CD80 and CD86 in vascularized murine cardiac allograft rejection” Proc. Natl. Acad. Sci. USA 93: 13967 (1996). Following surgery, the mice were divided into the following treatment groups: • Group I is a control group that was untreated. • Group II was treated with Compound 1 at a dose of 75 mg/kg/day subcutaneously for fourteen days following surgery. Control mice receiving no treatment reproducibly experienced rejection of their transplanted hearts after only ten days.

[2] = tested on: fully mismatched cardiac allografts (C57/BL 6 donor with Balb/C recipient); experiment: Heterotypic allogeneic heart transplant model with CD154 blockade, second mouse model (Example 2)
Description: The ability of compound 1 to inhibit chronic transplant rejection was tested in a mouse heterotypic allogeneic heart transplant model in which acute allograft rejection was prevented with CD154 blockade as previously described (Hancock, W. W. et al. 1996. Proc. Natl. Acad. Sci. USA. 93:13967; and Yuan et al., Transplantation 73:1736). Briefly, this model consists of fully mismatched cardiac allografts (C57/BL 6 donor with Balb/C recipient). […] A third group in which acute rejection is blocked by administering a single 250 μg dose of anti-CD154 (anti-CD40 ligand) monoclonal antibody was established, and acute rejection (as evidenced by cessation of contraction of the transplanted heart) occurred in approximately 50% of recipient animals. […] These include profound athlerosclerotic blockages of heart arteries, cellular inflammation (immune cell infiltration into the heart muscle itself), and fibrotic scarring of the cardiac parenchyma. The hearts were subjected to a histopathological score. The histopathological scores (range 0-5 indicating severity of chronic rejection accelerated atherosclerosis, with 0 being normal blood vessel and 5 being fully occluded) are shown in FIG. 2. Thus the addition of anti-CD154 to this model offers certain similarities to the human transplant clinical condition in that acute rejection is managed (in this case with the anti-CD154 monoclonal antibody) so that chronic rejection pathology can be observed.

[3] = tested on: hearts from donor B6.C-H2^bm12 mice transplanted into C57/BL6 recipient mice (MHC II mismatch); experiment: Chronic rejection of MHC class II mismatched heart transplants, first mouse model (Example 1)
Description: The ability of Compound 1 to inhibit chronic transplant rejection in a mouse model was tested. Specifically, hearts from donor B6.C-H2^bm12 mice were transplanted into C57/BL6 recipient mice (MHC II mismatch) using standard protocol described in Hancock, W. W., et al. Proc. Natl. Acad. Sci. USA 93: 13967 (1996) and Yuan et al., Transplantation 73:1736, the entire teachings of which are incorporated herein by reference. Following surgery, the mice were divided into the following treatment groups with seven mice each:
Group I was a control group that was untreated.
Group II was treated with Compound 1 at a dose of 75 mg/kg/day subcutaneously for fourteen days following surgery.
At eight weeks following transplant surgery, the mice were sacrificed and evaluated for chronic rejection accelerated atherosclerosis. Briefly, transplanted hearts were fixed in formalin, embedded in paraffin and sectioned coronally. The sections were scanned for arterial blood vessels, which were subjected to a histopathological score. The histopathological scores (range 0-5 indicating severity of chronic rejection accelerated atherosclerosis, with 0 being normal blood vessel and 5 being fully occluded) are shown in FIG. 1. […] It is likely that increased bioavailability resulting from improved compound formulation will result in more complete protection from chronic rejection vasculopathy.

SMILES: N#Cc1cccc(C(C(=O)NCC(c2ccccc2)c2ccccc2)N(CCc2c[nH]cn2)C(=O)c2ccccc2C(=O)c2ccccc2)c1 (centres unmarked) [Compound 1]
- delay in the onset of rejection [1]: two to three
- chronic rejection of transplanted hearts ([2]; 75 mg/kg/day Compound 1 for two weeks combined with single 250 μg anti-CD154 monoclonal antibody, 120 days post surgery): inhibited
- indicators of chronic graft rejection (atherosclerotic blockages, cellular inflammation, fibrotic scarring), histological evaluation ([2]; Compound 1 75 mg/kg daily s.c. for 14 days plus single dose anti-CD154, compared with anti-CD154 alone, more than 100 days post surgery): dramatic inhibition of all indicators of chronic rejection
- transplant recipient animals with lack of acute rejection ([2]; Compound 1 75 mg/kg daily s.c. for 14 days plus single dose anti-CD154, for more than 100 days post surgery): 100%
- extension in transplant survival ([2]; Compound 1 alone, untreated recipients rejected within 10 days): about 20 days
- animals free of vasculopathy ([3]; 75 mg/kg/day s.c. for fourteen days, eight weeks after transplant, seven mice per group): 4/7
- treated animals showing full involvement (vasculopathy) ([3]; 75 mg/kg/day s.c. for fourteen days, eight weeks after transplant, seven mice per group, possibly diminished exposure): three
- histological evidence of chronic rejection (histopathological score 0-5, chronic rejection accelerated atherosclerosis) ([3]; 75 mg/kg/day subcutaneously for fourteen days following surgery, evaluated eight weeks after transplant, averaged for all animals, vs untreated control): inhibited; also recorded: significantly (p=0.0002) prevented histological evidence of chronic rejection
